Reference: US4696912A, “Stabilized compositions” (priority 1986, dated 1987)
Converted amounts (≈) assume the structure as drawn. Where two headings read alike, the source gives them in different places.

Columns and labels:
L1210 Leukemia Cells = experiment: In vitro activity of CL-1565-A against L1210 leukemia cells; format: cell-based; conditions: Mus musculus, read-out: ID50 (the source's name)
Saccharomyces cervisiae = experiment: Antifungal activity, paper disk zone of inhibition; format: cell-based; conditions: 12.7 mm paper disks, 500 ug/ml, overnight at 28° C., read-out: Zone diameter
Description: (§1) Paper disks (12.7 mm in diameter) impregnated with an aqueous solution containing 500 ug of CL-1565-A/ml were placed on a layer of agar inoculated with the indicated microorganisms. After incubation overnight at 28° C., the following zones of inhibition were observed.

Saccharomyces italicus = experiment: Antifungal activity, paper disk zone of inhibition; format: cell-based; conditions: 12.7 mm paper disks, 500 ug/ml, overnight at 28° C.; read-out: Zone diameter
Description: as §1

P388 Lymphatic Leukemia = experiment: In vivo antitumor activity against P388 lymphatic leukemia in mice
From the text: In Vivo Antitumor Activity of CL-1565-A Against P388 Lymphatic Leukemia in Mice
The test method used is based on that described in Cancer Chemother. Reports 3:1-87 (part 3). 1972.

[1] = Stability in solid state form (HPLC assay); format: physicochemical; conditions: for remaining at 168 h / remaining at 504 h / remaining at 840 h: Table 1, solid state; for remaining at 168 h: 1 week; for remaining at 168 h / remaining at 504 h / remaining at 840 h / remaining at 2160 h / remaining at 3600 h / remaining at 6480 h / remaining at 16560 h: read-out: % CL-1565-A Remaining; for remaining at 504 h: 3 weeks; for remaining at 840 h: 5 weeks; for remaining at 2160 h / remaining at 3600 h / remaining at 6480 h / remaining at 16560 h: Table 3, solid form; for remaining at 2160 h: 3 months; for remaining at 3600 h: 5 months; for remaining at 6480 h: 9 months; for remaining at 16560 h: 23 months
Description: *Samples prepared by lyophilization of 1.5 mL aliquots of an aqueous
solution containing 15 mg of CL1565-A per ml.
^a Samples prepared by lyophilization of 1.5 mL of an aqueous solutio
containing 15 mg/mL of CL1565-A in 6mL serum vials.
^b Samples prepared by mixing CL1565-A and sodium ascorbate (1:1 mola
ratio) in solution prior to lyophilization.
(§2) CL-1565-A content was assayed by HPLC using a uBondapak C-18 silica gel column (Waters Assoc.) and 0.05 M pH 6.8 sodium phosphate buffer--acetonitrile (89:11) as the mobile phase, at a flow rate of 2 mL/minute. The retention time of CL-1565-A in this system is approximately 4.7 minutes. Solid samples were reconstituted in 100 mL of water immediately prior to HPLC assay. Solutions of CL-1565-A were diluted to a final concentration of 300 ug/mL with water prior to assay.

[2] = Stability in aqueous solution (HPLC assay); format: physicochemical; conditions: for remaining at 168 h / remaining at 336 h / remaining at 552 h / remaining at 48 h: aqueous solution, read-out: % CL-1565-A Remaining; for remaining at 168 h: 7 days; for remaining at 336 h: 14 days; for remaining at 48 h: 2 days
Description: ^b Solutions prepared by adding sodium ascorbate to solutions of
CL1565-A to yield an equimolar concentration.
as §2

[3] = Table 2, aqueous solution 5 mg/mL, 5° C.
[4] = Table 2, aqueous solution 5 mg/mL, 25° C.
[5] = Table 2, aqueous solution 15 mg/mL, 5° C.
[6] = Table 2, aqueous solution 15 mg/mL, 25° C.

In the case of CC(O)(C=CC1CC=CC(=O)O1)C(CC(O)C=CC=CC=CCO)OP(=O)(O)O (stereo not shown) [CL-1565-A], the IC50 (L1210 Leukemia Cells) is reported as 0.078 µg/mL (≈ 0.181 µM), the zone of inhibition at 500 µg/mL (Saccharomyces cervisiae) is reported as 25 mm and the zone of inhibition at 500 µg/mL (Saccharomyces italicus) is reported as 17 mm. For the same compound, the “T/C × 100” value (P388 Lymphatic Leukemia; 1.1 mg/kg/day, test-1) was 170, the “T/C × 100” value (P388 Lymphatic Leukemia; 1.1 mg/kg/day, test-2) was 139 and the “T/C × 100” value (P388 Lymphatic Leukemia; 2.1 mg/kg/day, test-1) was 173. The “T/C × 100” value (P388 Lymphatic Leukemia; 2.1 mg/kg/day, test-2) was 157, the “T/C × 100” value (P388 Lymphatic Leukemia; 4.3 mg/kg/day, test-1) was 170 and the “T/C × 100” value (P388 Lymphatic Leukemia; 4.3 mg/kg/day, test-2) was 172. The “T/C × 100” value (P388 Lymphatic Leukemia; 6.3 mg/kg/day, test-3) was 142, the “T/C × 100” value (P388 Lymphatic Leukemia; 8.5 mg/kg/day, test-1) was 256 and the “T/C × 100” value (P388 Lymphatic Leukemia; 8.5 mg/kg/day, test-2) was 209. For the same compound, the “T/C × 100” value (P388 Lymphatic Leukemia; 12.5 mg/kg/day, test-3) was 150, the “T/C × 100” value (P388 Lymphatic Leukemia; 17 mg/kg/day, test-1) was 256 and the “T/C × 100” value (P388 Lymphatic Leukemia; 17 mg/kg/day, test-2) was 248. For the same compound, the “T/C × 100” value (P388 Lymphatic Leukemia; 25 mg/kg/day, test-3) was 174, the remaining at 168 h ([1]; 5° C.) was 100% and the remaining at 504 h ([1]; 5° C.) was 100%. The remaining at 840 h ([1]; 5° C.) was 100%, the remaining at 168 h ([1]; 25° C.) was 87% and the remaining at 504 h ([1]; 25° C.) was 77%. It also gave a remaining at 840 h ([1]; 25° C.) of 69%, a remaining at 168 h ([1]; 37° C.) of 70% and a remaining at 504 h ([1]; 37° C.) of 26%. It also gave a remaining at 168 h ([1]; -15° C.) of 100%, a remaining at 504 h ([1]; -15° C.) of 100% and a remaining at 840 h ([1]; -15° C.) of 100%. The remaining at 2160 h ([1]; 5°) was 88%, the remaining at 3600 h ([1]; 5°) was 86% and the remaining at 6480 h ([1]; 5°) was 79%. For the same compound, the remaining at 16560 h ([1]; 5°) was 74%, the remaining at 2160 h ([1]; 25°) was 61% and the remaining at 2160 h ([1]; -15°) was 100%. For the same compound, the remaining at 3600 h ([1]; -15°) was 100%, the remaining at 6480 h ([1]; -15°) was 100% and the remaining at 16560 h ([1]; -15°) was 100%. It also gave a degraded at 840 h ([1]; five weeks at 25° C., read-out: decomposition) of 31%, a remaining at 168 h [2, 3] of 92% and a remaining at 336 h [2, 3] of 83%. It also gave a remaining at 552 h ([2]; Table 2, aqueous solution 5 mg/mL, 5° C., 23 days) of 76%, a remaining at 168 h [2, 4] of 77% and a remaining at 336 h [2, 4] of 63%. The remaining at 552 h ([2]; Table 2, aqueous solution 5 mg/mL, 25° C., 23 days) was 45%, the remaining at 168 h [2, 5] was 81% and the remaining at 336 h [2, 5] was 76%. The remaining at 552 h ([2]; Table 2, aqueous solution 15 mg/mL, 5° C., 23 days) was 66%, the remaining at 168 h [2, 6] was 67% and the remaining at 336 h [2, 6] was 55%. For the same compound, the remaining at 552 h ([2]; Table 2, aqueous solution 15 mg/mL, 25° C., 23 days) was 42%, the remaining at 168 h ([2]; Table 2, aqueous solution 15 mg/mL, 37° C.) was 35% and the remaining at 48 h ([2]; Table 4, aqueous solution 15 mg/mL, 5° C.) was 90%. For the same compound, the remaining at 552 h ([2]; Table 4, aqueous solution 15 mg/mL, 5° C., 23 days) was 66%, the remaining at 48 h ([2]; Table 4, aqueous solution 15 mg/mL, 25° C.) was 87% and the remaining at 552 h ([2]; Table 4, aqueous solution 15 mg/mL, 25° C., 23 days) was 42%. It also gave a degraded at 552 h ([2]; water, 23 days, 15 mg/mL in aqueous solution, read-out: decomposition) of 48%.
